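Compound exposure: 48 hours, 5 concentrations, 96-well plates. TGI: concentration producing complete growth inhibition.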

Among the test systems are KM12 colon; HOP-92 NSCLC; SN12C renal; LOX IMVI melanoma; TK-10 renal; RXF 393 renal; MDA-N; SF-295 CNS; SF-268 CNS; A498 renal; SK-MEL-2 melanoma; SK-MEL-5 melanoma; SK-MEL-28 melanoma; SW-620 colon; EKVX NSCLC; OVCAR-3 ovarian; RPMI-8226 leukemia; HL-60(TB) leukemia.
What all share (assay): DTP human tumour cell line panel, 48 h

A word on the TGI: it is the concentration giving total growth inhibition. A low value points to greater sensitivity of the cells. With `COC(=O)C1CCCCCCCCCCC12SCCCS2` (stereo not given), the TGI was 36 µM with KM12 colon; 39.9 µM with HOP-92 NSCLC; 31.8 µM in the assay on SN12C renal; 35.4 µM in the assay with LOX IMVI melanoma; 41.6 µM with TK-10 renal; 36.4 µM in the assay with RXF 393 renal. Moreover, the TGI with MDA-N is greater than 100 µM; in the assay on SF-295 CNS, 39 µM; with SF-268 CNS, 56.5 µM; with A498 renal, 49.7 µM; in the assay on SK-MEL-2 melanoma it was 41.9 µM; with SK-MEL-5 melanoma it was 41.9 µM. Also, the TGI with SK-MEL-28 melanoma is 36.1 µM; in the assay on SW-620 colon, 81.9 µM; in the assay on EKVX NSCLC, 35.6 µM; in the assay with OVCAR-3 ovarian it was 41 µM.

For the compound `CN(N=O)C(N)=NC(=O)c1ccccc1`, the TGI in the assay on RPMI-8226 leukemia, in the assay on KM12 colon, in the assay on HOP-92 NSCLC, in the assay with LOX IMVI melanoma, with TK-10 renal and with RXF 393 renal was greater than 100 µM each time. Also, the TGI in the assay with MDA-N, with SF-295 CNS, with SF-268 CNS, in the assay on A498 renal, in the assay with SK-MEL-2 melanoma and in the assay on SK-MEL-5 melanoma was greater than 100 µM each time. The TGI with SW-620 colon, with EKVX NSCLC and in the assay with OVCAR-3 ovarian was greater than 100 µM throughout.

As for `O=C1C(c2c(O)n(-c3ccccc3)c3ccccc23)=Nc2ccccc21`, the total growth inhibition concentration (TGI) in the assay on RPMI-8226 leukemia was greater than 100 µM; in the assay with KM12 colon it was greater than 100 µM; in the assay with HOP-92 NSCLC, 84.9 µM; with SN12C renal, greater than 100 µM; with LOX IMVI melanoma it was greater than 100 µM; with TK-10 renal, 53.6 µM. Also, the TGI in the assay on RXF 393 renal was 41.6 µM; in the assay with MDA-N, greater than 100 µM; in the assay on SF-295 CNS, greater than 100 µM; in the assay with SF-268 CNS it was greater than 100 µM; in the assay on A498 renal it was 75.7 µM; with SK-MEL-2 melanoma it was 97.3 µM. Also, the TGI in the assay with SK-MEL-5 melanoma is 69.8 µM; with SK-MEL-28 melanoma, greater than 100 µM; in the assay with SW-620 colon, greater than 100 µM; with EKVX NSCLC, 83.2 µM; in the assay with OVCAR-3 ovarian, greater than 100 µM.

In the case of `O=C1C2=Cc3ccccc3CCN2c2ccc([N+](=O)[O-])cc21`, the TGI in the assay on RPMI-8226 leukemia, with KM12 colon, in the assay on HOP-92 NSCLC, with SN12C renal, with LOX IMVI melanoma and in the assay with TK-10 renal was greater than 100 µM each time. Moreover, the TGI in the assay with RXF 393 renal, in the assay on HL-60(TB) leukemia, in the assay with MDA-N, in the assay with SF-295 CNS, in the assay on SF-268 CNS and in the assay with A498 renal was greater than 100 µM in each case. The TGI in the assay with SK-MEL-5 melanoma, in the assay on SK-MEL-28 melanoma, in the assay with SW-620 colon, in the assay on EKVX NSCLC and with OVCAR-3 ovarian was greater than 100 µM throughout.

Consider `COC(=O)[C@H]1[C@H](OC(=O)[C@@H](OC)c2ccccc2)ON2CC[C@@H](OC(=O)c3ccccc3)[C@H]12`, for which the TGI was greater than 100 µM in the assay with RPMI-8226 leukemia; greater than 100 µM in the assay on KM12 colon; 66 µM in the assay on HOP-92 NSCLC; greater than 100 µM in the assay on SN12C renal; greater than 100 µM in the assay with LOX IMVI melanoma; greater than 100 µM in the assay with TK-10 renal. For the same compound, the TGI with RXF 393 renal was greater than 100 µM; in the assay on HL-60(TB) leukemia, greater than 100 µM; in the assay with MDA-N, greater than 100 µM; in the assay on SF-295 CNS, greater than 100 µM; with SF-268 CNS, greater than 100 µM; with A498 renal it was 23.1 µM. For the same compound, the TGI in the assay with SK-MEL-2 melanoma, in the assay on SK-MEL-5 melanoma, with SK-MEL-28 melanoma and in the assay with EKVX NSCLC was greater than 100 µM each time.

`CCOC(=O)CC(=O)Nc1c(C(=O)OCC)sc2nc(SC)nc(Nc3ccc(OC)c(OC)c3)c12`: the TGI in the assay on KM12 colon was greater than 100 µM; in the assay on HOP-92 NSCLC, 33.7 µM; in the assay on SN12C renal, greater than 100 µM; in the assay on LOX IMVI melanoma, greater than 100 µM; with TK-10 renal, greater than 100 µM; with RXF 393 renal, 25.1 µM. Also, the TGI in the assay on HL-60(TB) leukemia is greater than 100 µM; with MDA-N, greater than 100 µM; in the assay on SF-295 CNS, 76.1 µM; in the assay on SF-268 CNS, greater than 100 µM; in the assay with A498 renal, 82.4 µM; in the assay on SK-MEL-2 melanoma, greater than 100 µM. Also, the TGI is greater than 100 µM in the assay on SK-MEL-5 melanoma; greater than 100 µM in the assay with SK-MEL-28 melanoma; greater than 100 µM with SW-620 colon; greater than 100 µM in the assay with EKVX NSCLC; 40.1 µM in the assay on OVCAR-3 ovarian.

Regarding `COc1ccc2c(c1)CC[C@@H]1C2CC[C@]2(C)C(=O)N(C)C(=O)CC12` (stereo not given in full), the TGI in the assay with KM12 colon, in the assay with HOP-92 NSCLC, in the assay with SN12C renal, in the assay on TK-10 renal, in the assay on RXF 393 renal and with HL-60(TB) leukemia was greater than 100 µM in each case. Further, the TGI with MDA-N, in the assay with SF-295 CNS, with SF-268 CNS, in the assay on A498 renal, in the assay on SK-MEL-5 melanoma and in the assay with SK-MEL-28 melanoma was greater than 100 µM throughout. Besides, the total growth inhibition concentration (TGI) in the assay on SW-620 colon, with EKVX NSCLC and with OVCAR-3 ovarian was greater than 100 µM in each case.

As for `CC1=NN(c2ccccc2Cl)C2(C1)SCC(=O)N2c1nc2ccccc2s1` (stereo not given), the TGI with RPMI-8226 leukemia, in the assay with KM12 colon, in the assay with HOP-92 NSCLC, with SN12C renal, with LOX IMVI melanoma and in the assay with TK-10 renal was greater than 100 µM throughout. The TGI in the assay on RXF 393 renal, in the assay with MDA-N, in the assay on SF-295 CNS, with SF-268 CNS, in the assay with A498 renal and with SK-MEL-2 melanoma was greater than 100 µM in each case. For the same compound, the TGI in the assay on SK-MEL-5 melanoma, with SK-MEL-28 melanoma, in the assay on SW-620 colon, in the assay with EKVX NSCLC and in the assay with OVCAR-3 ovarian was greater than 100 µM in each case.

For the origin of these results see PubChem BioAssay (NCI).
